“Also recorded” adds a separate entry of the source.
Key:
[1] = test system: anterior ST-segment elevation myocardial infarction; details: IV elamipretide given before reperfusion; cited from earlier work
[2] = test system: ischemia-reperfusion injury (AMI, LAD occlusion); assay: Swine AMI model: intracoronary elamipretide before VA-ECMO, reperfusion delayed 30 minutes, then 180 minutes of reperfusion; type: in vivo
Protocol: To begin exploring whether stabilizing CL activity can limit myocardial infarct size during VA-ECMO support for AMI, we employed an over-the-wire coronary angioplasty balloon to delivery elamipretide into the area at risk while maintaining occlusion of the LAD. We treated adult male swine with a single IC injection of either elamipretide (0.05 ug/kg/minute IC over 10 minutes) or vehicle prior to initiating VA-ECMO and then delayed coronary reperfusion for 30 minutes, thereby allowing the drug to reach the area at risk and stabilize CL. Elamipretide was continued as an IV infusion (0.05 ug/kg/minute) during 180 minutes of reperfusion. […] Elamipretide dosing was based on prior reports (Kloner et al., J. Am. Heart Assoc. 1(3):e001644, 2012; Gibson et al., Eur. Heart J. 37(16):1296-1303, 2016).

[3] = test system: LV infarct scar after AMI; assay: Late-term outcomes in swine 28 days after AMI with VA-ECMO, with or without cardioprotective drug; type: in vivo; details: at 30 days; VA-ECMO + elamipretide vs reperfusion alone or VA-ECMO alone before reperfusion; FIG. 6
Protocol: To explore late-term outcomes after VA-ECMO with or without cardioprotective drug therapy in AMI, we decannulated, recovered, and monitored swine for 28 days after peripheral cannulation for VA-ECMO support. Adult male swine were subjected to coronary occlusion followed by reperfusion alone or VA-ECMO before reperfusion for 180 minutes. In a separate group, swine were treated with a cardioprotective agent before initiation of VA-ECMO with a 30-minute delay to reperfusion. After 28 days, we identified for the first time that compared to reperfusion alone, VA-ECMO increases infarct scar size and impairs LV function after AMI (FIGS. 5A and 5B). […] These findings support our central hypothesis that VA-ECMO promotes LV scar after AMI and further that treatment with a cardioprotective agent reduces LV scar size 30 days after AMI, which may have broad reaching implications for any patient with acute myocardial infarction or patients at risk of developing cardiac impairment while receiving VA-ECMO. Broad groups of patients may be treated using this approach including, e.g., all AMI patients and all patients treated with VA-ECMO. Indications include, for example, cardiogenic shock, heart failure, lung failure, myocarditis, trauma, and arrhythmia. […] (FIG. 6).

cardiolipin = assay: Mitochondrial cardiolipin in the infarct zone, swine IRI with ECMO / EC-Pella (FIGS. 9C-9D); type: in vivo; details: to a similar degree as pre-emptive ECPella
Protocol: Ischemia-reperfusion injury (IRI) was induced in adult swine via percutaneous occlusion of the left anterior descending artery (LAD) for 90 minutes, followed by activation of either ECMO alone for 30 minutes or EC-Pella for 45 minutes with persistent LAD occlusion. All groups underwent 180 minutes of reperfusion (n=4-6/group). To study whether the sequence of device activation impacts infarct size, we compared activation of ECMO alone for 30 minutes followed by simultaneous Impella CP for 15 minutes (Bailout EC-Pella) versus Impella CP activation for 30 minutes followed by simultaneous ECMO for 15 minutes (Pre-emptive EC-Pella) before reperfusion. LV hemodynamics and ventriculo-arterial (VA) coupling were assessed.
Compared to IRI and ECMO alone, EC-Pella decreased PVA when applied as pre-emptive ECPella but not Bailout ECPella (FIG. 7). Both EC-Pella configurations decreased infarct size (FIG. 8A), increased cardioprotective signaling via the reperfusion injury salvage kinase pathway (FIG. 8B), and reduced apoptosis and pro-apoptotic signaling (FIG. 8C). Pre-emptive, but not bailout, ECPella preserved mitochondrial […] tafazzin levels (FIGS. 9A-B), increased mitochondrial cardiolipin levels (FIG. 9C), and reduced the ratio of immature: mature cardiolipin (MLCL: CL ratio; FIG. 9D) within the infarct zone compared to ECMO alone.

[4] = elamipretide plus VA-ECMO, FIG. 4C

D-Arg-2′,6′-Dmt-Lys-Phe-NH2 [elamipretide]
infarct size in humans (EMBRACE-STEMI Trial) [1]: failed to reduce infarct size | reduction of infarct size compared to IRI plus VA-ECMO support ([2]; adult male swine, 0.05 ug/kg/minute IC over 10 minutes before VA-ECMO, reperfusion delayed 30 minutes, IV infusion during 180 minutes reperfusion, vs vehicle): 70% | reduction of infarct size compared to IRI alone ([2]; adult male swine, elamipretide IC before VA-ECMO, reperfusion delayed 30 minutes): 55% | infarct size compared to reperfusion without VA-ECMO (in words) ([2]; elamipretide before initiation of VA-ECMO): significantly reduces infarct size | MLCL:CL ratio in the infarct zone ([2]; elamipretide plus VA-ECMO, FIG. 4B): decreased | H202 levels in the infarct zone [2, 4]: decreased | mitochondrial protease activity in the infarct zone [2, 4]: decreased | ETC complex function ([2]; elamipretide plus VA-ECMO, FIG. 4E): improved ETC complex function | infarct size compared to IRI alone, elamipretide without VA-ECMO ([2]; elamipretide treatment without VA-ECMO, FIG. 4A): failed to reduce infarct size; also recorded: did not reduce infarct size | infarct (LV) scar size [3]: reduced infarct scar size; also recorded: can limit LV scar size | mitochondrial cardiolipin levels in the infarct zone (cardiolipin; FIG. 9C): increases cardiolipin | mono-lysl cardiolipin: mature cardiolipin (MLCL:CL) ratio in the infarct zone (cardiolipin; FIG. 9D): reduces
